Measurements as given in patent US10053431B2, “Tetrahydro-benzodiazepinones” (priority 2013, dated 2018).
Structures can show the parent of a compound that is named as a salt.

What was measured:
BIR2 domain of XIAP = BIR2 domain of XIAP (Homo sapiens (Human), UniProt P98170, C202A/C213G); experiment: TR-FRET assay for BIR2 (inhibition of binding of XIAP BIR2 domain to SMAC-derived Peptide A); settings: 6x His-tagged BIR2 domain (aa 124-240 of XIAP) 10 nM, Peptide A 20 nM, TR-FRET; read-out: IC50 BIR2
BIR2 domain of XIAP, sequence (P98170 124-240 with tags or gaps C202A/C213G limits assumed): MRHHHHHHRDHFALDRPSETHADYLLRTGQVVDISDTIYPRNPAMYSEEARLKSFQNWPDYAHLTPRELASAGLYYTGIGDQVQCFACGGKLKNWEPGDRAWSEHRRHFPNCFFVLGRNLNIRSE

BIR3 domain of XIAP = BIR3 domain of XIAP (Homo sapiens (Human), UniProt P98170); experiment: TR-FRET assay for BIR3 (inhibition of binding of XIAP BIR3 domain to SMAC-derived Peptide A); settings: 6x His-tagged BIR3 domain (aa 241-356 of XIAP) 10 nM, Peptide A 20 nM, TR-FRET
BIR3 domain of XIAP, sequence (P98170 241-356 with tags or gaps limits assumed): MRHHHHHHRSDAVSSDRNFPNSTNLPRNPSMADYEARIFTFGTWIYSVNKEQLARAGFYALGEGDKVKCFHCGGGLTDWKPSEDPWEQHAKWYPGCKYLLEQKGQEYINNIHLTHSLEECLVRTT

| IC50 (BIR3 domain of XIAP) [nM] | SMILES | IC50 (BIR2 domain of XIAP) [nM] |
| --- | --- | --- |
| > 54800 | CN[C@@H](C)C(=O)N[C@H]1CN(C(=O)c2ccccc2[C@H](C)O)c2ccccc2N(Cc2c(C)ccc3ccccc23)C1=O (stereo in doubt) [Example 148, (2S)-N-[(3S)-1-[2-[(1S)-1-hydroxyethyl]benzoyl]-5-[(2-methylnaphthalen-1-yl)methyl]-4-oxo-2,3-dihydro-1,5-benzodiazepin-3-yl]-2-(methylamino)propanamide;(2S)-N-[(3S)-1-[2-[(1R)-1-hydroxyethyl]benzoyl]-5-[(2-methylnaphthalen-1-yl)methyl]-4-oxo-2,3-dihydro-1,5-benzodiazepin-3-yl]-2-(methylamino)propanamide] | 40.1 |
| > 54800 | CN[C@@H](C)C(=O)N[C@H]1CN(C(=O)c2ccncc2)c2ccccc2N(Cc2c(C)ccc3ccccc23)C1=O [Example 9, (S)-2-Methylamino-N—[(S)-1-(2-methyl-naphthalen-1-naphthalen-1 ylmethyl)-2-oxo-5-(pyridine-4-carbonyl)-2,3,4,5-tetrahydro-1H-benzo[b][1,4]diazepin-3-yl]-propionamide hydrochloride] | 520 |
| > 54800 | CN[C@@H](C)C(=O)N[C@H]1CN(C(=O)c2ccc(S(C)(=O)=O)cc2)c2ccccc2N(Cc2c(C)ccc3ccccc23)C1=O [Example 13c] | 119 |
| > 54800 | CN[C@@H](C)C(=O)N[C@H]1CN(C(=O)CCCCC(=O)OC)c2ccccc2N(Cc2c(C)ccc3ccccc23)C1=O [Example 13e] | 308 |
| > 54800 | CN[C@@H](C)C(=O)N[C@H]1CN(C(=O)c2cc(OC)c(OC)c(OC)c2)c2ccccc2N(Cc2c(C)ccc3ccccc23)C1=O [Example 13g] | 481 |
| 46700 | CN[C@@H](C)C(=O)N[C@H]1CN(C(=O)CCNC(=O)OCC2c3ccccc3-c3ccccc32)c2ccccc2N(Cc2c(OC)ccc3cc(C(=O)OC)ccc23)C1=O [Example 13r] | 17 |
| – | CN[C@@H](C)C(=O)N[C@H]1CN(C(=O)c2ccc(C(=O)O)cc2)c2ccccc2N(Cc2c(OC)ccc3cc(Br)ccc23)C1=O [Example 29, 4-[(S)-5-(6-Bromo-2-methoxy-naphthalen-1-ylmethyl)-3-((S)-2-methylamino-propionylamino)-4-oxo-2,3,4,5-tetrahydro-benzo[b][1,4]diazepine-1-carbonyl]-benzoic acid hydrochloride] | 28 |
| – | CN[C@@H](C)C(=O)N[C@H]1CN(C(=O)C23CC4CC(CC(C4)C2)C3)c2ccccc2N(Cc2c(OC)ccc3cc(Br)ccc23)C1=O [Example 34, (S)—N—[(S)-5-(Adamantane-1-carbonyl)-1-(6-bromo-2-methoxy-naphthalen-1-ylmethyl)-2-oxo-2,3,4,5-tetrahydro-1H-benzo[b][1,4]diazepin-3-yl]-2-methylamino-propionamide hydrochloride] | 33 |
| – | COc1ccc2cc(Br)ccc2c1CN1C(=O)[C@@H](NC(=O)[C@@H]2CCN2)CN(C(=O)c2ccc(C(C)=O)cc2)c2ccccc21 [Example 36, (S)—N—((S)-5-(4-acetylbenzoyl)-1-((6-bromo-2-methoxynaphthalen-1-yl)methyl)-2-oxo-2,3,4,5-tetrahydro-1H-benzo[b][1,4]diazepin-3-yl)azetidine-2-carboxamide hydrochloride] | 5000 |
| – | COc1ccc2cc(Br)ccc2c1CN1C(=O)[C@@H](NC(=O)[C@H](C)N)CN(C(=O)c2ccc(C(C)=O)cc2)c2ccccc21 [Example 39, (S)—N—((S)-5-(4-acetylbenzoyl)-1-((6-bromo-2-methoxynaphthalen-1-yl)methyl)-2-oxo-2,3,4,5-tetrahydro-1H-benzo[b][1,4]diazepin-3-yl)-2-aminopropanamide hydrochloride] | 19 |
| – | CN[C@@H](C)C(=O)N[C@H]1CN(C(=O)CCCC(C)=O)c2ccccc2N(Cc2c(OC)ccc3cc(C(=O)OC)ccc23)C1=O [Example 46, 6-Methoxy-5-[(S)-3 ((S)-2-methylamino-propionylamino)-2-oxo-5-(5-oxo-hexanoyl)-2,3,4,5-tetrahydro-benzo[b][1,4]diazepin-1-ylmethyl]-naphthalene-2-carboxylic acid methyl ester hydrochloride] | 62 |
| – | CN[C@@H](C)C(=O)N[C@H]1CN(C(=O)CCN)c2ccccc2N(Cc2c(OC)ccc3cc(C(=O)O)ccc23)C1=O [Example 62, 5-(((S)-5-(3-aminopropanoyl)-3-((S)-2-(methylamino)propanamido)-2-oxo-2,3,4,5-tetrahydro-1H-benzo[b][1,4]diazepin-1-yl)methyl)-6-methoxy-2-naphthoic acid hydrochloride] | 17 |
| > 54800 | CN[C@H](C)C(=O)N[C@H]1CN(C(=O)c2ccc(C(C)=O)cc2)c2ccccc2N(Cc2c(C)ccc3ccccc23)C1=O [Example 68, (R)—N—((S)-5-(4-acetylbenzoyl)-1-((2-methylnaphthalen-1-yl)methyl)-2-oxo-2,3,4,5-tetrahydro-1H-benzo[b][1,4]diazepin-3-yl)-2-(methylamino)propanamide hydrochloride] | – |

| SMILES | IC50 (BIR3 domain of XIAP) [nM] | IC50 (BIR2 domain of XIAP) [nM] |
| --- | --- | --- |
| CN[C@@H](C)C(=O)N[C@H]1CN(C(=O)Cc2ccccc2)c2ccccc2N(Cc2cccc3ccccc23)C1=O [Example 4, (S)-2-Methylamino-N—((S)-1-naphthalen-1-ylmethyl-2-oxo-5-phenylacetyl-2,3,4,5-tetrahydro-1H-benzo[b][1,4]diazepin-3-yl)-propionamide hydrochloride] | > 54000 | 409 |
| CN[C@@H](C)C(=O)N[C@H]1CN(C(=O)COCCOC)c2ccccc2N(Cc2c(C)ccc3ccccc23)C1=O [Example 10, (S)—N—[(S)-5-[2-(2-methoxy-ethoxy)-acetyl]-1-(2-methyl-naphthalen-1-ylmethyl)-2-oxo-2,3,4,5-tetrahydro-1H-benzo[b][1,4]diazepin-3-yl]-2-methylamino-propionamide hydrochloride] | > 54800 | 364 |
| CN[C@@H](C)C(=O)N[C@H]1CN(C(=O)CC(N)=O)c2ccccc2N(Cc2c(C)ccc3ccccc23)C1=O [Example 11, (S)—N—[(S)-5-(2-Carbamoyl-acetyl)-1-(2-methyl-naphthalen-1-ylmethyl)-2-oxo-2,3,4,5-tetrahydro-1H-benzo[b][1,4]diazepin-3-yl]-2-methylamino-propionamide hydrochloride] | > 54800 | 426 |
| CN[C@@H](C)C(=O)N[C@H]1CN(C(=O)CN2CCN(C)CC2)c2ccccc2N(Cc2c(C)ccc3ccccc23)C1=O [Example 12, (S)-2-methylamino-N—{(S)-1(2-methyl-naphthalen-1-ylmethyl)-5-[2-(4-methyl-piperazin-1-yl)-acetyl]-2-oxo-2,3,4,5-tetrahydro-1H-benzo[b][1,4]diazepin-3-yl}-propionamide hydrochloride] | > 54800 | 820 |
| CN[C@@H](C)C(=O)N[C@H]1CN(C(=O)c2ccc(C(C)=O)cc2)c2ccccc2N(Cc2c(C)ccc3ccccc23)C1=O [Example 13f] | > 54800 | 54 |
| CN[C@@H](C)C(=O)N[C@H]1CN(C(=O)CC2CCOCC2)c2ccccc2N(Cc2c(OC)ccc3c(Br)cccc23)C1=O [Example 87, (S)—N—((S)-1-((5-bromo-2-methoxynaphthalen-1-yl)methyl)-2-oxo-5-(2-(tetrahydro-2H-pyran-4-yl)acetyl)-2,3,4,5-tetrahydro-1H-benzo[b][1,4]diazepin-3-yl)-2-(methylamino)propanamide hydrochloride] | 54400 | – |
